Results from US20240270723A1, “SUBSTITUTED HETEROCYCLIC COMPOUNDS” (BRISTOL-MYERS SQUIBB COMPANY, priority 2021, published 2024).

What was measured:
[1] = tested on: IFNα-induced pSTAT5 in human whole blood (CD3 positive population); assay: IFNα-Induced STAT Phosphorylation in Human Whole Blood; type: cell-based; details: 1 h incubation with compound, 1000 U/mL IFNα A/D for 15 min, pSTAT5 in CD3 positive cells, read-out: Human Whole blood IFNa pSTAT5 IC50
Experimental: IFNα-Induced STAT Phosphorylation in Human Whole Blood
After an hour long incubation with compound, human whole blood (drawn with ACD-A as anticoagulant) was stimulated with 1000 U/mL recombinant human IFNα A/D (R&D Systems 11200-2) for 15 min. The stimulation was stopped by adding Fix/Lyse buffer (BD 558049). Cells were stained with a CD3 FITC antibody (BD 555916), washed, and permeabilized on ice using Perm III buffer (BD 558050). Cells were then stained with an Alexa-Fluor 647 pSTAT5 (pY694) antibody (BD 612599) for 60 min prior to analysis on the iQue Plus. The amount of pSTAT5 expression was quantitated by median fluorescence intensity after gating on the CD3 positive population.

in vitro = details: human, Caco-2, pH 7.4

SMILES | IC50 [1] [nM] | Papp A→B at 2 h, 3 μM (in vitro) [×10⁻⁶ cm/s] | efflux ratio at 2 h, 3 μM (in vitro)
[2H]C([2H])([2H])NC(=O)c1nnc(NC(=O)C2CC2)cc1Nc1cncc(-c2cnn(C3CC3)n2)c1OC [Example 5, 6-(cyclopropanecarboxamido)-4-((5-(2-cyclopropyl-2H-1,2,3-triazol-4-yl)-4-methoxypyridin-3-yl)amino)-N-(methyl-d3)pyridazine-3-carboxamide] | 1090 | 34.2 | 1.1
[2H]C([2H])([2H])NC(=O)c1nnc(NC(=O)C2CC2)cc1Nc1ncnc(-c2cnn(C)n2)c1OC [Example 1, 6-(cyclopropanecarboxamido)-4-((5-methoxy-6-(2-methyl-2H-1,2,3-triazol-4-yl)pyrimidin-4-yl)amino)-N-(methyl-d3)pyridazine-3-carboxamide] | 320 | 26.1 | 1.8
[2H]C([2H])([2H])NC(=O)c1nnc(NC(=O)C2CC2)cc1Nc1ccnc(-c2cnn(C3CC3)c2)c1OC [Example 4, 6-(cyclopropanecarboxamido)-4-((2-(1-cyclopropyl-1H-pyrazol-4-yl)-3-methoxypyridin-4-yl)amino)-N-(methyl-d3)pyridazine-3-carboxamide] | 350 | 13.8 | 2.8

Now from value to compound:

IC50 [1] [nM] | Papp A→B at 2 h, 3 μM (in vitro) [×10⁻⁶ cm/s] | efflux ratio at 2 h, 3 μM (in vitro) | SMILES
190 | 9.8 | 3.3 | [2H]C([2H])([2H])NC(=O)c1nnc(NC(=O)C2CC2)cc1Nc1ccnc(-c2cnn(C3CC3)n2)c1OC [Example 3, 6-(cyclopropanecarboxamido)-4-((2-(2-cyclopropyl-2H-1,2,3-triazol-4-yl)-3-methoxypyridin-4-yl)amino)-N-(methyl-d3)pyridazine-3-carboxamide]
50 | 12.2 | 4.9 | [2H]C([2H])([2H])NC(=O)c1nnc(NC(=O)C2CC2)cc1Nc1ccnc(-c2cnn(C)n2)c1OC [Example 2, 6-(cyclopropanecarboxamido)-4-((3-methoxy-2-(2-methyl-2H-1,2,3-triazol-4-yl)pyridin-4-yl)amino)-N-(methyl-d3)pyridazine-3-carboxamide]
